Where “and” joins values, the source holds several entries; their conditions need not be identical. Equal entries are not always repeated.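 Each compound was tested at five concentrations against cells in 96-well plates for 48 hours. GI50 = concentration required for 50% inhibition of growth. TGI: total growth inhibition.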
Columns and labels:
Assay in all cases: inhibition of tumour cell growth, NCI panel, 48 h
ACHN renal = test system: ACHN renal
HCT-116 colon = test system: HCT-116 colon
A549 NSCLC = test system: A549 NSCLC
SK-OV-3 ovarian = test system: SK-OV-3 ovarian
SNB-19 CNS = test system: SNB-19 CNS
HCC-2998 colon = test system: HCC-2998 colon
NCI-H522 lung = test system: NCI-H522 lung
EKVX NSCLC = test system: EKVX NSCLC
K-562 leukemia = test system: K-562 leukemia
MALME-3M melanoma = test system: MALME-3M melanoma

Compound	TGI (ACHN renal)	TGI (HCT-116 colon)	TGI (A549 NSCLC) [µM]	TGI (SK-OV-3 ovarian)	TGI (SNB-19 CNS)	TGI (HCC-2998 colon)	TGI (NCI-H522 lung)	TGI (EKVX NSCLC) [µM]	TGI (K-562 leukemia)	TGI (MALME-3M melanoma) [µM]	GI50 (ACHN renal) [µM]	GI50 (HCT-116 colon) [µM]	GI50 (A549 NSCLC) [µM]	GI50 (SK-OV-3 ovarian) [µM]	GI50 (SNB-19 CNS) [µM]	GI50 (HCC-2998 colon) [µM]	GI50 (NCI-H522 lung) [µM]	GI50 (EKVX NSCLC) [µM]	GI50 (K-562 leukemia) [µM]	GI50 (MALME-3M melanoma) [µM]
OCC(O)C(O)C(O)C(O)/C=N/Nc1nc(O)c(/C=C2\C=Nc3ccccc32)[nH]1 (configuration not stated)	> 100 µM	> 100 µM	> 100	> 100 µM	> 100 µM	> 100 µM	> 100 µM	> 100	> 100 µM	> 100										
CC1(C)CC[C@]2(C(=O)O)[C@H](O)C[C@]3(C)C(=CC[C@@H]4[C@@]5(C)CC[C@H](OC6OC(C(=O)O)C(O)C(O)C6O)C(C)(C)[C@@H]5CC[C@]43C)[C@@H]2C1 (some centres not stated)	> 100 µM	> 100 µM	> 100	> 100 µM	> 100 µM	> 100 µM	> 100 µM	> 100	> 100 µM	> 100										
OC(CN1CCCCC1)c1ccc(/C=C/c2ccc(Cl)cc2)cc1 (configuration not stated)	> 100 µM	> 100 µM	> 100	> 100 µM	> 100 µM	> 100 µM	72.7 µM	> 100	> 100 µM	> 100										
O=[N+]([O-])c1ccc2ncccc2c1CCc1c([N+](=O)[O-])ccc2ncccc12	> 100 µM	> 100 µM	> 100	> 100 µM	> 100 µM	> 100 µM	> 100 µM	> 100	> 100 µM	> 100										
CC[C@H](C)C1=C(OC(C)=O)[N@+]2([O-])Oc3ccc(-c4c(OC(C)=O)c(OC(C)=O)c(-c5ccc(OC(C)=O)cc5)c(OC(C)=O)c4OC(C)=O)cc3O[C@]2([C@@H](C)CC)C(=O)N1OC(C)=O	> 50 µM	> 50 µM	41.6	49.4 µM	> 50 µM	0.031 µM	16 µM	22.5	> 50 µM	> 50										
NCCCC[C@H](N)C(=O)Nc1ccc(-c2nc3ccccc3s2)cc1Cl	29.3 µM	1.93 µM	9.08	31.1 µM	32.9 µM	> 38.4 µM	11 µM	19.6	> 25 µM	28.3										
COc1ccc2[nH]c(O)c(/C=c3/cc4c(c(-c5ccc(F)cc5)n3)=Nc3ccccc3-4)c2c1	22.5 µM	3.04 µM	6.34	33.8 µM	> 100 µM	12.6 µM	5.19 µM	> 100	7.95 µM	4.6	10.3	1.67	2.31	17.2	3.6	3.3	1.86	23.2	2.45	2.4
CC1CN=C(c2ccc(COc3ccc(C4=NCC(C)N4)cc3)cc2)N1 (configuration not stated)	> 100 µM	> 100 µM	> 100	> 100 µM	> 100 µM	> 100 µM	> 100 µM	> 100	> 100 µM	> 100										
CCCCCCCCCCCCCCCCP(=O)([O-])OCC[N+](C)(C)C	31.9 µM	28 µM	32.9	24.6 µM	> 57.4 µM	22 µM	42.6 µM	39.1	35.7 µM	36.6										
c1ccc(CCn2cncn2)cc1	> 100 µM	> 100 µM	> 100	> 100 µM	> 100 µM	> 100 µM	> 100 µM	> 100	> 100 µM	> 100										
C[N+](C)(N)c1nc(N)c(C#N)c(C#N)c1C#N	> 10 µM	> 10 µM	> 10	> 10 µM	> 10 µM	> 10 µM	> 10 µM	> 10	> 10 µM	> 10										
C=CC1(c2ccc(OC)cc2)OCCCO1	> 100 µM	> 100 µM	> 100	> 100 µM	> 100 µM	> 100 µM	> 100 µM	34.6	> 100 µM	> 100										
COC(=O)[C@H](CCSC)NC(=O)c1ccc(CNC(=O)/C(C)=C/c2ccccc2)cc1	> 100 µM	> 100 µM	> 100	> 100 µM	58.2 µM	83.6 µM	32.5 µM	> 100	> 100 µM	29.5										
CC(/C=N/NC1=NCCCN1)=N\NC1=NCCCN1	> 100 µM	> 100 µM	> 100	> 100 µM	> 100 µM	> 100 µM	> 100 µM	> 100	> 100 µM	> 100										
COc1ccc(C[C@@H]2OC3(C=CC(=O)C=C3)O[C@H]2Cc2ccc(OC)cc2)cc1	1.16 µM	0.33 µM	11.2	13.5 µM	5.01 µM	2.95 µM	0.33 µM	3.7	> 100 µM	4.22										
COc1ccccc1NCC(=O)Nn1c(C)nc2ccc(S(=O)(=O)Nc3ccccc3OC)cc2c1=O	> 100 µM	> 100 µM	> 100	> 100 µM	> 100 µM	> 100 µM	> 100 µM	> 100	> 100 µM	> 100										
CN1C(=O)N(C)C2(CCN(CCCCCCF)CC2)C1=O	> 100 µM	> 100 µM	> 100	> 100 µM	> 100 µM	> 100 µM	> 100 µM	> 100	> 100 µM	> 100										
Cc1nc2c(=O)[nH]c3ccc(Cl)cc3c2o1	> 100 µM	> 100 µM	> 100	> 100 µM	> 100 µM	> 100 µM	> 100 µM	> 100	> 100 µM	> 100										
COc1ccccc1NS(=O)(=O)c1ccc2ncn(NS(=O)(=O)c3ccc(Cl)cc3)c(=O)c2c1	> 100 µM	> 100 µM	> 100	> 100 µM	> 100 µM	> 100 µM	> 100 µM	> 100	> 100 µM	> 100										

Compound	TGI (ACHN renal)	TGI (HCT-116 colon)	TGI (A549 NSCLC) [µM]	TGI (SK-OV-3 ovarian)	TGI (SNB-19 CNS)	TGI (HCC-2998 colon)	TGI (NCI-H522 lung)	TGI (EKVX NSCLC) [µM]	TGI (K-562 leukemia)	TGI (MALME-3M melanoma) [µM]	GI50 (ACHN renal) [µM]	GI50 (HCT-116 colon) [µM]	GI50 (A549 NSCLC) [µM]	GI50 (SK-OV-3 ovarian) [µM]	GI50 (SNB-19 CNS) [µM]	GI50 (HCC-2998 colon) [µM]	GI50 (NCI-H522 lung) [µM]	GI50 (EKVX NSCLC) [µM]	GI50 (K-562 leukemia) [µM]	GI50 (MALME-3M melanoma) [µM]
C#CCCCC(=O)N(C(=O)CS(=O)CC)c1ccccc1 (configuration not stated)	> 100 µM	> 100 µM	> 100	> 100 µM	> 100 µM	> 100 µM	> 100 µM	> 100	> 100 µM	> 100										
CC(=O)C1(O)Cc2c(O)c3c(c(O)c2C(OC2CC(N)C(O)C(C)O2)C1)C(=O)c1ccccc1C3=O (configuration not stated)	0.097 µM and 0.0268 µM	0.62 µM and 0.174 µM	0.338	0.788 µM and 0.129 µM	0.97 µM and 0.156 µM	0.257 µM and 0.0758 µM	0.119 µM and 0.0672 µM	0.811	0.78 µM and 0.716 µM	0.0666				< 0.0129	< 0.0122	0.0198	0.0183	0.0826	< 0.0109	
C=CCN1CCC2(CC1)NC(=O)c1ccccc1O2	> 100 µM	> 100 µM	> 100	> 100 µM	> 100 µM	> 100 µM	> 100 µM	> 100	> 100 µM	> 100										
O=C1C[C@H](c2ccc(O)c(O)c2)Oc2cc(O)cc(O)c21	> 100 µM	> 100 µM	> 100	> 100 µM	> 100 µM	> 100 µM	> 100 µM	> 100	> 100 µM	> 100										
CC(C)N(C(C)C)P(OCCC#N)OC1CC(n2cnc3c(=O)[nH]cnc32)OC1COC(=O)NCCCCCCNC(=O)OC(C)(C)c1ccc(-c2ccccc2)cc1 (configuration not stated)	> 100 µM	> 100 µM	> 100	> 100 µM	57.8 µM	65.1 µM	32.6 µM	> 100	37.5 µM	89.4										
COc1cccc(-c2cc(=O)c3cc(Cl)cnc3[nH]2)c1	55.4 µM	10.6 µM	31.6	74.8 µM	> 77.2 µM	3.83 µM	3.51 µM	> 100	> 100 µM	> 100										
CN(C)c1ccc(/C=c2/c3cc([N+](=O)[O-])ccc3n3c2cc(-c2ccccc2)[n+]3C)cc1	19.6 µM	5.84 µM	11.7	11.3 µM	3.84 µM	7.55 µM	1.9 µM	7.81	7.42 µM	1.18										
C=C1c2nc3ccccc3n2C=C(c2ccc(OC)cc2)N1c1ccc(OCCN2CCOCC2)cc1	> 100 µM	> 100 µM	> 100	> 100 µM	> 100 µM	> 100 µM	3.63 µM	> 100	> 100 µM	27.6										
CC1(C)c2ccccc2C(O)C12CCC(=O)CC2 (configuration not stated)	> 100 µM	23.2 µM	93.9	> 100 µM	> 100 µM	> 100 µM	> 100 µM	> 100	> 100 µM	> 100										
COc1ccc2c(c1)-c1[nH]c3ccccc3c1CC2	32.3 µM	31.8 µM	30.4	33.6 µM	30.9 µM	23.6 µM	20.3 µM	21.9	> 100 µM	25.6										
O=C(O)CC(O)(C(=O)O)C(O)C(=O)O (configuration not stated)	> 1000 µM	> 1000 µM	> 1000	> 1000 µM	> 1000 µM	> 1000 µM	> 1000 µM	> 1000	> 1000 µM	> 1000										
Brc1cccc[n+]1-c1ccc2cc(-[n+]3ccccc3Br)ccc2c1	37.2 µM	> 100 µM	> 100	55.6 µM	> 100 µM	> 100 µM	> 100 µM	> 100	> 100 µM	72.7										
CCOP(=O)(OCC)C(Nc1ccc(F)cc1)c1ccccc1 (configuration not stated)	> 100 µM	> 100 µM	> 100	> 100 µM	> 100 µM	> 100 µM	> 100 µM	> 100	> 100 µM	> 100										
CN(C)CCn1nc(N)c2nc3cc(C(F)(F)F)ccc3nc21	> 100 µM	> 100 µM	> 100	> 100 µM	> 100 µM	> 100 µM	> 100 µM	> 100	> 100 µM	> 100										
COC[C@@H](Cc1ccc(OC)c(OC)c1)[C@@H](COC)Cc1ccc(OC)c(OC)c1	> 100 µM	> 100 µM	> 100	> 100 µM	> 100 µM	> 100 µM	> 100 µM	> 100	> 100 µM	> 100										
Cc1cc(O)c(C(C)C)cc1N=Cc1ccccc1O	23.9 µM	13.5 µM	43	28.8 µM	36.5 µM	14.7 µM	17.2 µM	26.8	> 22.3 µM	28.4										
CCCC1(N)CC(OC)OC(C)C1O (configuration not stated)	> 100 µM	> 100 µM	> 100	> 100 µM	> 100 µM	> 100 µM	> 100 µM	> 100	> 100 µM	> 100										
CCOC(=O)CC[C@H](N)C(=O)N[C@H](Cc1ccc(N(CCCl)CCCl)cc1)C(=O)OCC	2.68 µM	> 36.2 µM	> 100	11.7 µM	99 µM	6.21 µM	6.76 µM	19.1	> 100 µM	13.9	0.499									

From PubChem BioAssay (NCI)
